Assay results: patent US10658848B2, “Materials for use with aqueous redox flow batteries and related methods and systems” (Massachusetts Institute of Technology, priority 2014, dated 2020)
Marks after values point to notes of the source that are not given here.

Test: Qualitative cyclic voltammetry of quinoxaline electrolytes
Format: physicochemical
Procedure: Quinoxaline electrochemical behavior was characterized in a number of aqueous electrolytes. […] All electrochemical measurements presented in this paper were performed using a Biologic VSP-300 potentiostat. Glassy carbon electrodes were used as working electrodes in voltammetry experiments and were polished using 0.05 μm alumina suspension before performing a new set of measurements. Solution resistances were measured prior to electrochemical experiments to be 5Ω. Due to small peak currents during CV (less than 1 mA), the maximum estimated iR drop was 5 mV. During qualitative CV experiments, a 75% solution resistance compensation (iR correction) was applied during the experiment to ensure high quality data in untested systems. Quantitative CV techniques were carried with no iR correction as the small potential offset was unlikely to affect experimental results. Additionally, no iR correction was applied during RDV experiments because analyses only considered the limiting RDV current, which is unaffected by ohmic losses. All potentials given herein are presented versus the reversible hydrogen electrode (RHE), unless otherwise stated. Experimental potentials were determined versus a calibrated Ag/AgCl reference electrode and converted to potentials versus RHE using the […] equation and the pH of the solution, measured with a pH meter. All currents utilized in quantitative calculations were background corrected, assuming the background current was composed of non-faradaic, hydrogen evolution reaction and oxygen reduction reaction currents. Qualitative CV experiments were carried out in a three-electrode cell with a 0.3 cm diameter glassy carbon electrode (0.071 cm^2, CH Instruments), a platinum (Pt) wire counter electrode (CH Instruments) and a Ag/AgCl (3 M NaCl, BASi Inc.) reference electrode. […] Three-electrode cells were filled with 10 mL of solution, and the solution was bubbled with argon at a rate of 50 mL/min for 10 min prior to experiments. The argon bubbling tube was then adjusted such that it provided a blanket of argon gas over the surface of the solution. Then, ten cycles of CV were recorded at a scan rate of 100 mV/s. […] A linear slope to the front of an anodic peak (ma) and cathodic peak (mc) was estimated as a rough indicator of the overall reaction rate of either the forward or backward reaction, combining effects of both reaction kinetics and mass-transport. Achieving a slope ratio (ma/mc) of one, indicates an equally fast forward and backward overall reaction rate.

[1] = 0.45M Li2SO4/0.1M LiOH, pH 12.2
[2] = 0.495M K2SO4/0.01M KOH, pH 11.8
[3] = 0.495M Li2SO4/0.01M LiOH, pH 12.0
[4] = 0.5M K2SO4, pH 8.9, considerable degradation
[5] = 0.9M NaC2H3O2/0.1M NaOH, pH 12.7
[6] = 0.99M LiNO3/0.01M LiOH, pH 11.3
[7] = 0.99M NaC2H3O2/0.01M NaOH, pH 11.8
[8] = 0.99M NaHCO3/0.01M NaOH, pH 8.7
[9] = 0.99M NaNO3/0.01M NaOH, pH 11.6
[10] = 1M KNO3, pH 7.2, significant hydrogen evolution reaction current
[11] = 1M LiCl, pH 3.8, considerable degradation
[12] = 1M LiNO3, pH 6.0, significant hydrogen evolution reaction current
[13] = 1M NaHCO3, pH 8.7, considerable degradation

Compound: c1ccc2nccnc2c1 [quinoxaline]
- E° vs. RHE (0.45M K2SO4/0.1M KOH, pH 12.8): −0.50 V
- ipa, 10/ipa, 2 (0.45M K2SO4/0.1M KOH, pH 12.8): 0.99
- ipc, 10/ipc, 2 (0.45M K2SO4/0.1M KOH, pH 12.8): 0.97
- ma/mc (0.45M K2SO4/0.1M KOH, pH 12.8): 0.51
- ΔEpp, 10/ΔEpp, 2 (0.45M K2SO4/0.1M KOH, pH 12.8): 1.05
- E° vs. RHE [1]: −0.52 V
- ipa, 10/ipa, 2 [1]: 1.00
- ipc, 10/ipc, 2 [1]: 0.99
- ma/mc [1]: 0.46
- ΔEpp, 10/ΔEpp, 2 [1]: 1.02
- E° vs. RHE [2]: −0.51 V
- ipa, 10/ipa, 2 [2]: 0.98
- ipc, 10/ipc, 2 [2]: 0.95
- ma/mc [2]: 0.64
- ΔEpp, 10/ΔEpp, 2 [2]: 1.08
- E° vs. RHE [3]: −0.52 V
- ipa, 10/ipa, 2 [3]: 0.96
- ipc, 10/ipc, 2 [3]: 0.95
- ma/mc [3]: 0.55
- ΔEpp, 10/ΔEpp, 2 [3]: 1.06
- E° vs. RHE [4]: −0.90 ^‡ V
- ipc, 10/ipc, 2 [4]: 0.45 ^‡
- ma/mc [4]: 0.91 ^‡
- ΔEpp, 10/ΔEpp, 2 [4]: 2.16 ^‡
- E° vs. RHE (0.5M Li2SO4, pH 6.6, considerable degradation): −0.81 ^‡ V
- E° vs. RHE (0.9M KCl/0.1M KOH, pH 12.8): −0.45 V
- ipa, 10/ipa, 2 (0.9M KCl/0.1M KOH, pH 12.8): 0.99
- ipc, 10/ipc, 2 (0.9M KCl/0.1M KOH, pH 12.8): 0.96
- ma/mc (0.9M KCl/0.1M KOH, pH 12.8): 0.46
- ΔEpp, 10/ΔEpp, 2 (0.9M KCl/0.1M KOH, pH 12.8): 1.05
- E° vs. RHE (0.9M KNO3/0.1M KOH, pH 12.8): −0.50 V
- ipa, 10/ipa, 2 (0.9M KNO3/0.1M KOH, pH 12.8): 0.99
- ipc, 10/ipc, 2 (0.9M KNO3/0.1M KOH, pH 12.8): 0.98
- ma/mc (0.9M KNO3/0.1M KOH, pH 12.8): 0.53
- ΔEpp, 10/ΔEpp, 2 (0.9M KNO3/0.1M KOH, pH 12.8): 1.03
- E° vs. RHE (0.9M LiCl/0.1M LiOH, pH 12.1): −0.53 V
- ipa, 10/ipa, 2 (0.9M LiCl/0.1M LiOH, pH 12.1): 1.00
- ipc, 10/ipc, 2 (0.9M LiCl/0.1M LiOH, pH 12.1): 0.99
- ma/mc (0.9M LiCl/0.1M LiOH, pH 12.1): 0.51
- ΔEpp, 10/ΔEpp, 2 (0.9M LiCl/0.1M LiOH, pH 12.1): 1.04
- E° vs. RHE (0.9M LiNO3/0.1M LiOH, pH 12.1): −0.48 V
- ipa, 10/ipa, 2 (0.9M LiNO3/0.1M LiOH, pH 12.1): 0.99
- ipc, 10/ipc, 2 (0.9M LiNO3/0.1M LiOH, pH 12.1): 0.95
- ma/mc (0.9M LiNO3/0.1M LiOH, pH 12.1): 0.51
- ΔEpp, 10/ΔEpp, 2 (0.9M LiNO3/0.1M LiOH, pH 12.1): 1.10
- E° vs. RHE [5]: −0.51 V
- ipa, 10/ipa, 2 [5]: 1.00
- ipc, 10/ipc, 2 [5]: 0.97
- ma/mc [5]: 0.46
- ΔEpp, 10/ΔEpp, 2 [5]: 1.04
- E° vs. RHE (0.9M NaHCO3/0.1M NaOH, pH 9.1): −0.53 V
- ipa, 10/ipa, 2 (0.9M NaHCO3/0.1M NaOH, pH 9.1): 0.82
- ipc, 10/ipc, 2 (0.9M NaHCO3/0.1M NaOH, pH 9.1): 0.78
- ma/mc (0.9M NaHCO3/0.1M NaOH, pH 9.1): 1.63
- ΔEpp, 10/ΔEpp, 2 (0.9M NaHCO3/0.1M NaOH, pH 9.1): 1.56
- E° vs. RHE (0.9M NaNO3/0.1M NaOH, pH 12.5): −0.52 V
- ipa, 10/ipa, 2 (0.9M NaNO3/0.1M NaOH, pH 12.5): 0.98
- ipc, 10/ipc, 2 (0.9M NaNO3/0.1M NaOH, pH 12.5): 0.98
- ma/mc (0.9M NaNO3/0.1M NaOH, pH 12.5): 0.50
- ΔEpp, 10/ΔEpp, 2 (0.9M NaNO3/0.1M NaOH, pH 12.5): 1.07
- ip,a (0.99 M KCl/0.01 M KOH, across all cycles): 0.12 mA
- E° vs. RHE (0.99M KCl/0.01M KOH, pH 11.8): −0.48 V
- ipa, 10/ipa, 2 (0.99M KCl/0.01M KOH, pH 11.8): 1.00
- ipc, 10/ipc, 2 (0.99M KCl/0.01M KOH, pH 11.8): 0.97
- ma/mc (0.99M KCl/0.01M KOH, pH 11.8): 0.59
- ΔEpp, 10/ΔEpp, 2 (0.99M KCl/0.01M KOH, pH 11.8): 1.02
- E° vs. RHE (0.99M KNO3/0.01M KOH, pH 11.7): −0.52 V
- ipa, 10/ipa, 2 (0.99M KNO3/0.01M KOH, pH 11.7): 1.00
- ipc, 10/ipc, 2 (0.99M KNO3/0.01M KOH, pH 11.7): 0.97
- ma/mc (0.99M KNO3/0.01M KOH, pH 11.7): 0.64
- ΔEpp, 10/ΔEpp, 2 (0.99M KNO3/0.01M KOH, pH 11.7): 1.01
- E° vs. RHE (0.99M LiCl/0.01M LiOH, pH 11.4): −0.52 V
- ipa, 10/ipa, 2 (0.99M LiCl/0.01M LiOH, pH 11.4): 0.99
- ipc, 10/ipc, 2 (0.99M LiCl/0.01M LiOH, pH 11.4): 0.96
- ma/mc (0.99M LiCl/0.01M LiOH, pH 11.4): 0.63
- ΔEpp, 10/ΔEpp, 2 (0.99M LiCl/0.01M LiOH, pH 11.4): 1.05
- E° vs. RHE [6]: −0.47 V
- ipa, 10/ipa, 2 [6]: 0.98
- ipc, 10/ipc, 2 [6]: 0.95
- ma/mc [6]: 0.67
- ΔEpp, 10/ΔEpp, 2 [6]: 1.08
- E° vs. RHE [7]: −0.52 V
- ipa, 10/ipa, 2 [7]: 1.01
- ipc, 10/ipc, 2 [7]: 0.97
- ma/mc [7]: 0.58
- ΔEpp, 10/ΔEpp, 2 [7]: 1.06
- E° vs. RHE [8]: −0.53 V
- ipa, 10/ipa, 2 [8]: 0.06
- ipc, 10/ipc, 2 [8]: 0.50
- ma/mc [8]: 1.61
- ΔEpp, 10/ΔEpp, 2 [8]: 2.90
- E° vs. RHE [9]: −0.52 V
- ipa, 10/ipa, 2 [9]: 1.00
- ipc, 10/ipc, 2 [9]: 0.96
- ma/mc [9]: 0.61
- ΔEpp, 10/ΔEpp, 2 [9]: 1.04
- ip,a (1 M KCl, cycle 2): 0.11 mA
- ip,a (1 M KCl, cycle 10): 0.06 mA
- E° vs. RHE (1M KCl, pH 5.4): −0.80 V
- ipa, 10/ipa, 2 (1M KCl, pH 5.4): 0.57
- ipc, 10/ipc, 2 (1M KCl, pH 5.4): 0.56
- ma/mc (1M KCl, pH 5.4): 0.75
- ΔEpp, 10/ΔEpp, 2 (1M KCl, pH 5.4): 1.85
- E° vs. RHE [10]: −0.76 ^† V
- ipa, 10/ipa, 2 [10]: 0.91 ^†
- ipc, 10/ipc, 2 [10]: 1.01 ^†
- ma/mc [10]: 1.51 ^†
- ΔEpp, 10/ΔEpp, 2 [10]: 1.04 ^†
- peak separation (1 M KOH, 1 M NaOH, or 1 M LiOH): ~150 mV
- E° vs. RHE (1M KOH, pH 13.7): −0.48 V
- ipa, 10/ipa, 2 (1M KOH, pH 13.7): 0.98
- ipc, 10/ipc, 2 (1M KOH, pH 13.7): 0.97
- ma/mc (1M KOH, pH 13.7): 0.42
- ΔEpp, 10/ΔEpp, 2 (1M KOH, pH 13.7): 1.04
- E° vs. RHE [11]: −0.94 ^‡ V
- ipc, 10/ipc, 2 [11]: 0.08 ^‡
- ma/mc [11]: 0.96 ^‡
- ΔEpp, 10/ΔEpp, 2 [11]: 2.95 ^‡
- E° vs. RHE [12]: −0.75 ^† V
- ipa, 10/ipa, 2 [12]: 0.80 ^†
- ipc, 10/ipc, 2 [12]: 0.91 ^†
- ma/mc [12]: 1.94 ^†
- ΔEpp, 10/ΔEpp, 2 [12]: 1.11 ^†
- E° vs. RHE (1M LiOH, pH 12.7): −0.55 V
- ipa, 10/ipa, 2 (1M LiOH, pH 12.7): 0.98
- ipc, 10/ipc, 2 (1M LiOH, pH 12.7): 0.96
- ma/mc (1M LiOH, pH 12.7): 0.45
- ΔEpp, 10/ΔEpp, 2 (1M LiOH, pH 12.7): 1.00
- E° vs. RHE (1M NaC2H3O2, pH 8.6, two distinct reduction and oxidation peaks): −0.68 * V
- E° vs. RHE [13]: −0.53 ^‡ V
- ma/mc [13]: 1.51 ^‡
- E° vs. RHE (1M NaNO3, pH 6.8): −0.77 V
- ipa, 10/ipa, 2 (1M NaNO3, pH 6.8): 0.12
- ipc, 10/ipc, 2 (1M NaNO3, pH 6.8): 0.46
- ma/mc (1M NaNO3, pH 6.8): 0.82
- ΔEpp, 10/ΔEpp, 2 (1M NaNO3, pH 6.8): 1.78
- E° vs. RHE (1M NaOH, pH 13.8): −0.48 V
- ipa, 10/ipa, 2 (1M NaOH, pH 13.8): 0.99
- ipc, 10/ipc, 2 (1M NaOH, pH 13.8): 0.98
- ma/mc (1M NaOH, pH 13.8): 0.46
- ΔEpp, 10/ΔEpp, 2 (1M NaOH, pH 13.8): 1.01
- peak separation (KCl electrolyte with 0.01 M KOH, cycle 2): 230 mV
- peak separation (KCl electrolyte with 0.1 M KOH, cycle 2): 200 mV
- ratio of charge transferred between the cathodic and anodic scans (all electrolytes with pH≥11.4, within a particular CV cycle): exceeded 0.9
- redox potential E° vs. RHE (cases where quinoxaline exhibited stable performance over multiple CV cycles): ≈ −0.5 V
- redox potential E° vs. RHE (electrolytes where degradation of quinoxaline was observed, not indicators of the actual redox potential): ≤ −0.75 V
- peak separation (sulfate and chloride anions, at 0.01 M OH^−): < 220 mV
- peak separation (sulfate and chloride anions, at 0.1 M OH^−): < 200 mV
